# Molecular target: T1, KRAS G12C 1-169, his-tagged protein, GDP-loaded (Homo sapiens, UniProt P01116, G12C)
# T1 construct: KRAS G12C 1-169, his-tagged protein, GDP-loaded
# Assay: Biochemical assay: covalent binding to KRAS G12C analyzed by mass spectrometry
# Settings: compounds 1-47, measured at 24 h
# Protocol: Compounds were tested for activity as follows:
# Compounds were diluted to 50× final test concentration in DMSO in 96-well storage plates. […] Reactions were mixed carefully and thoroughly by pipetting up/down with a 200 μl multi-channel pipettor. […] 5 μl of 2% formic acid (Fisher cat#A117) in DI H2O was then added to each well followed by mixing with a pipette. The plate was then resealed with aluminum seal and stored on dry ice until analyzed as described below.
# The above described assays were analyzed by mass spectrometry according to the following procedure:
# The MS instrument is set to positive polarity, 2 GHz resolution, and low mass (1700) mode and allowed to equilibrate for 30 minutes. The instrument is then calibrated, switched to acquisition mode and the appropriate method loaded.
# After another 30 minute equilibration time, a blank batch (i.e., buffer) is run to ensure equipment is operating properly. The samples are thawed at 37° C. for 10 minutes, briefly centrifuged, and transfer to the bench top. Wells A1 and H12 are spiked with 1 μL 500 μM internal standard peptide, and the plates centrifuged at 2000×g for 5 minutes. The method is then run and masses of each individual well recorded.
# The masses (for which integration data is desired) for each well are pasted into the platemap and exported from the analysis. Masses for the internal standards are exported as well. The data at 50 ppm is extracted for the +19 charge state, and identity of well A1 is assigned using the internal standard spike and integrated. Peak data is exported as a TOF list and the above steps are repeated individually, for the +20, 21, 22, 23, 24, and 25 charge states.
# T1 sequence (P01116 1-169 isoform P01116-2 G12C): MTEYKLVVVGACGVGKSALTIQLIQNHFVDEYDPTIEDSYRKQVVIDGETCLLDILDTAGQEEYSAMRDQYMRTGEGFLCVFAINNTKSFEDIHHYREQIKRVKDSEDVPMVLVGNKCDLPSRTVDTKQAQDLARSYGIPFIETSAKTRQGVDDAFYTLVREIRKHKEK
row,Structure (SMILES),Binding %
1,"C=CC(=O)N1CCN(c2ncnc3cc(Cl)c(-c4cccc(O)c4)cc23)CC1 [Compound I-14, 1-(4-(7-chloro-6-(3-hydroxyphenyl)quinazolin-4-yl)piperazin-1-yl)prop-2-en-1-one]",++ (++indicates binding activity greater than 25% and up to 50%)
2,"C=CC(=O)N1CCN(c2c(C#N)cnc3cc(Cl)c(-c4ccc(Cl)cc4)cc23)CC1 [Compound I-42, 4-(4-acryloylpiperazin-1-yl)-7-chloro-6-(4-chlorophenyl)quinoline-3-carbonitrile]",+++ (+++indicates binding activity greater than 50% and up to 75%)

# Same assay, conditions: compounds 48-246, measured at 2 h
row,Structure (SMILES),Binding %
1,"C=CC(=O)N1CCN(c2ncnc3cc(-c4ccccc4CC(N)=O)c(Cl)cc23)CC1 [Compound I-161, 2-(2-(4-(4-acryloylpiperazin-1-yl)-6-chloroquinazolin-7-yl)phenyl)acetamide]",++ (++indicates binding activity greater than 25% and up to 50%)
2,"C=CC(=O)N1CCN(c2ncnc3cc(-c4ccc(F)cc4)c(Cl)cc23)CC1 [Compound I-83, 1-(4-(6-chloro-7-(4-fluorophenyl)quinazolin-4-yl)piperazin-1-yl)prop-2-en-1-one]",++ (++indicates binding activity greater than 25% and up to 50%)
3,"C=CC(=O)N1CCN(c2ncnc3cc(Cl)ccc23)CC1C#N (stereo not shown) [Compound I-48, 1-acryloyl-4-(7-chloroquinazolin-4-yl)piperazine-2-carbonitrile]",++++ (++++indicates binding activity greater than 75%)
4,"C=CC(=O)N1CCN(c2ncnc3cc(-c4ccccc4)c(Cl)cc23)CC1C(N)=O (stereo not shown) [Compound I-104, 1-acryloyl-4-(6-chloro-7-phenylquinazolin-4-yl)piperazine-2-carboxamide]",+++ (+++indicates binding activity greater than 50% and up to 75%)
5,"C=CC(=O)N1CCN(c2ncnc3cc(Cl)c(-c4ccc(Cl)cc4)cc23)C[C@H]1C#N [Compound I-59, (S)-1-acryloyl-4-(7-chloro-6-(4-chlorophenyl)quinazolin-4-yl)piperazine-2-carbonitrile]",++++ (++++indicates binding activity greater than 75%)
6,"C=CC(=O)N1CCN(c2ncnc3cc(-c4ccccc4-c4cn[nH]c4)c(Cl)cc23)CC1 [Compound I-183, 1-(4-(7-(2-(1H-pyrazol-4-yl)phenyl)-6-chloroquinazolin-4-yl)piperazin-1-yl)prop-2-en-1-one]",+++ (+++indicates binding activity greater than 50% and up to 75%)

# Same assay, conditions: compounds 247-342, measured at 30 min
row,Structure (SMILES),Binding %
1,C=CC(=O)N1CCN(c2ncnc3c(F)c(-c4c(C)ccc5[nH]ncc45)c(Cl)cc23)CC1CC#N (stereo not shown) [Compound I-294],++++ (++++indicates binding activity greater than 75%)
2,"C=CC(=O)N1CCN(c2c(C#N)cnc3c(F)c(-c4c(C)ccc5cn[nH]c45)c(Cl)cc23)CC1 [Compound 308, 4-(4-acryloylpiperazin-1-yl)-6-chloro-8-fluoro-7-(6-methyl-1H-indazol-7-yl)quinoline-3-carbonitrile]",+++ (+++indicates binding activity greater than 50% and up to 75%)
3,"C=CC(=O)N1CCN(c2nc(N)nc3cc(-c4c(C)ccc5[nH]ncc45)c(Cl)cc23)CC1 [Compound 319, 1-(4-(2-amino-6-chloro-7-(5-methyl-1H-indazol-4-yl)quinazolin-4-yl)piperazin-1-yl)prop-2-en-1-one]",++ (++indicates binding activity greater than 25% and up to 50%)
4,"CN(C)C/C=C/C(=O)N1CCN(c2c(C#N)cnc3c(F)c(-c4cc(O)cc5ccccc45)c(Cl)cc23)CC1 [Compound 310, (E)-6-chloro-4-(4-(4-(dimethylamino)but-2-enoyl)piperazin-1-yl)-8-fluoro-7-(3-hydroxynaphthalen-1-yl)quinoline-3-carbonitrile]",++++ (++++indicates binding activity greater than 75%)

# Same assay, conditions: determined at 24 hrs
row,Structure (SMILES),Binding %
1,"C=CC(=O)N1CC(N2CCC(C(=O)NCc3cc(Cl)c(Cl)cc3O)CC2)C1 [II-17, 1-(1-acryloylazetidin-3-yl)-N-(4,5-dichloro-2-hydroxybenzyl)piperidine-4-carboxamide]",++ (++indicates binding activity greater than 15% and up to 25%)

# From patent US10111874B2, “Combination therapies for treatment of cancer” (Araxes Pharma LLC, priority 2014, dated 2018)
